Reference: article PMC3353862
pIC50: −log10 of the molar value. Values after ≈ are worked out from the molar mass of the structure shown.

Assays:
M. catarrhalis = experiment: Broth microdilution MIC testing; type: cell-based, Moraxella catarrhalis
E. faecalis = experiment: Broth microdilution MIC testing; type: cell-based, Enterococcus faecalis; conditions: E. faecalis
E. coli tolC mutants = experiment: Broth microdilution MIC testing; type: cell-based, Escherichia coli; conditions: E. coli tolC mutants
S. aureus = experiment: Broth microdilution MIC testing; type: cell-based, Staphylococcus aureus; conditions: S. aureus
S. pneumoniae = experiment: Broth microdilution MIC testing; type: cell-based, Streptococcus pneumoniae; conditions: S. pneumoniae
[1] = system: bacterial protein synthesis (aminoacylation/translation system); experiment: aminoacylation/translation (A/T) assay; type: biochemical; conditions: A/T assay, Table 1; read-out: IC50
[2] = system: E. coli modified with PMBN; experiment: Broth microdilution MIC testing; type: cell-based, Escherichia coli; conditions: E. coli modified with PMBN
H. influenzae = experiment: Broth microdilution MIC testing; type: cell-based, Haemophilus influenzae; conditions: H. influenzae

Row | Structure (SMILES) | MIC M. cat (M. catarrhalis) | MIC E. fae (E. faecalis) | MIC E. coli tolC (E. coli tolC mutants) | MIC S. aureus (S. aureus) | MIC S. pneumo (S. pneumoniae) | pIC50 [1] | MIC E. coli +PMBP [2] | MIC H. flu (H. influenzae)
1 | CCOCc1cc(CN2CCc3nc(-c4ccccn4)[nH]c(=O)c3C2)ccc1OC [Compound 323208] | 4 µg/mL (≈ 9.84 µM) | > 128 µg/mL | 64 µg/mL (≈ 157 µM) | > 128 µg/mL | 32 µg/mL (≈ 78.7 µM) | 5.57 | 64 µg/mL (≈ 157 µM) | 64 µg/mL (≈ 157 µM)
2 | COc1cc(C)c(CN2CCc3nc(-c4ccccn4)[nH]c(=O)c3C2)cc1OC [Compound 323209] | 4 µg/mL (≈ 10.2 µM) | > 128 µg/mL | 64 µg/mL (≈ 163 µM) | > 128 µg/mL | 32 µg/mL (≈ 81.5 µM) | 5.82 | 64 µg/mL (≈ 163 µM) | 64 µg/mL (≈ 163 µM)
3 | O=C(COc1ccc(CN2CCc3nc(-c4ccccn4)[nH]c(=O)c3C2)cc1)N1CCCC1 [Compound 323210] | > 128 µg/mL | > 128 µg/mL | > 128 µg/mL | > 128 µg/mL | > 128 µg/mL | 5.49 | > 128 µg/mL | > 128 µg/mL
4 | O=C1CCCN1c1ccc(CN2CCc3nc(-c4ccccn4)[nH]c(=O)c3C2)cc1 [Compound 323211] | 64 µg/mL (≈ 159 µM) | > 128 µg/mL | > 128 µg/mL | > 128 µg/mL | > 128 µg/mL | 5.80 | > 128 µg/mL | > 128 µg/mL
5 | Cn1c(=O)n(C)c2cc(CN3CCc4nc(-c5ccccn5)[nH]c(=O)c4C3)ccc21 [Compound 323213] | > 128 µg/mL | > 128 µg/mL | > 128 µg/mL | > 128 µg/mL | > 128 µg/mL | 5.62 | > 128 µg/mL | > 128 µg/mL
6 | COc1cc(CN2CCc3nc(-c4ccccn4)[nH]c(=O)c3C2)ccc1OCCO [Compound 323214] | > 128 µg/mL | > 128 µg/mL | > 128 µg/mL | > 128 µg/mL | > 128 µg/mL | < 3.52 | > 128 µg/mL | > 128 µg/mL
7 | COc1cc(CN2CCc3nc(-c4ccccn4)[nH]c(=O)c3C2)ccc1O [Compound 323215] | 128 µg/mL (≈ 351 µM) | > 128 µg/mL | > 128 µg/mL | > 128 µg/mL | > 128 µg/mL | 5.68 | > 128 µg/mL | 64 µg/mL (≈ 176 µM)
8 | O=c1[nH]c(-c2ccccn2)nc2c1CN(Cc1ccc(Cl)cc1)CC2 [Compound 323216] | ≤0.12 µg/mL | 32 µg/mL (≈ 90.7 µM) | 8 µg/mL (≈ 22.7 µM) | 16 µg/mL (≈ 45.3 µM) | 4 µg/mL (≈ 11.3 µM) | 5.96 | 8 µg/mL (≈ 22.7 µM) | 2 µg/mL (≈ 5.67 µM)
9 | COc1ccc(CN2CCc3nc(-c4ccccn4)[nH]c(=O)c3C2)cc1O [Compound 323217] | 32 µg/mL (≈ 87.8 µM) | > 128 µg/mL | > 128 µg/mL | > 128 µg/mL | > 128 µg/mL | 5.32 | > 128 µg/mL | 32 µg/mL (≈ 87.8 µM)
10 | O=c1[nH]c(-c2ccccn2)nc2c1CN(Cc1ccccc1Cl)CC2 [Compound 323219] | ≤0.12 µg/mL | 32 µg/mL (≈ 90.7 µM) | 8 µg/mL (≈ 22.7 µM) | 16 µg/mL (≈ 45.3 µM) | 4 µg/mL (≈ 11.3 µM) | 5.52 | 16 µg/mL (≈ 45.3 µM) | 4 µg/mL (≈ 11.3 µM)
11 | O=c1[nH]c(-c2ccccn2)nc2c1CN(Cc1cccc(Cl)c1)CC2 [Compound 323220] | ≤0.12 µg/mL | 32 µg/mL (≈ 90.7 µM) | 8 µg/mL (≈ 22.7 µM) | 16 µg/mL (≈ 45.3 µM) | 4 µg/mL (≈ 11.3 µM) | 5.68 | 8 µg/mL (≈ 22.7 µM) | 2 µg/mL (≈ 5.67 µM)
12 | CC(=O)Nc1ccc(CN2CCc3nc(-c4ccccn4)[nH]c(=O)c3C2)cc1 [Compound 323222] | > 128 µg/mL | > 128 µg/mL | > 128 µg/mL | > 128 µg/mL | > 128 µg/mL | < 3.52 | > 128 µg/mL | > 128 µg/mL
